According to publication PMC10453766, “Comparison of the Effects of DOTA and NOTA Chelators on ^64Cu-Cudotadipep and ^64Cu-Cunotadipep for Prostate Cancer” (Diagnostics, 2023):

Experiments:
PC3-PIP (PSMA+) cells = assay: Cell uptake in PC3-PIP cells; assay type: cell-based, human; conditions: as given in the abstract
Description: PC3-PIP or PC3-flu cells (1 × 10^6) were mixed with 3.7 MBq (100 μCi) of ^64Cu-cudotadipep or ^64Cu-cunotadipep and incubated at 37 °C and 5% CO2 for 2 h. Following incubation, the cells were washed with PBS twice and collected via centrifugation (2000 rpm, 5 min). Radioactivity was measured using 2480 WIZARD2 gamma counter (Perkin Elmer, Waltham, MA, USA). Percent (%) uptake was calculated using the ratio between the radioactivity of the cells and treated radioactivity.

PSMA = target: T1, PSMA (Homo sapiens, UniProt Q04609); assay: Competitive binding assay against ^125I-MIP-1095 in 22Rv1 cells
T1 construct: host or cells: 22Rv1 human prostate cancer cells (intact cells)
T1 sequence (Q04609 whole entry): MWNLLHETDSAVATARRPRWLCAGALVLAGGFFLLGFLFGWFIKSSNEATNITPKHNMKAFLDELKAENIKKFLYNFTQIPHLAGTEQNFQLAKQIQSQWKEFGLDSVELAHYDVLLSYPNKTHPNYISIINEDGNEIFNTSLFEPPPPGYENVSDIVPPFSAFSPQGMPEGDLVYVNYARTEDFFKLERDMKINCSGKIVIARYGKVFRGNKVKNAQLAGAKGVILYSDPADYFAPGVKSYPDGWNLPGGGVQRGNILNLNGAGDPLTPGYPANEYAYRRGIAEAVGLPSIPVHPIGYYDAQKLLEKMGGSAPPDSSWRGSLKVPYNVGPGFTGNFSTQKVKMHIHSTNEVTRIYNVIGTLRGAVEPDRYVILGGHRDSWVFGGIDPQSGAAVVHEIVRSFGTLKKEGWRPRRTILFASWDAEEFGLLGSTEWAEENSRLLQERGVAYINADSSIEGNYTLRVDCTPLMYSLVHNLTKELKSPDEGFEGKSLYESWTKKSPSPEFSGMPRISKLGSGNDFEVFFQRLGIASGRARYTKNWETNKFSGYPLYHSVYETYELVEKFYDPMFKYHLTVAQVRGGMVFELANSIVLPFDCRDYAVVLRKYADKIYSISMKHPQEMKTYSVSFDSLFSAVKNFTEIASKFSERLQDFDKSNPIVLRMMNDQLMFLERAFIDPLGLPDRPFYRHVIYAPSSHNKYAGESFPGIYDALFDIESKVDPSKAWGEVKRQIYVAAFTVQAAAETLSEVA
Description: The 22Rv1 cells (1 × 10^6 cells/well, 48-well plate) were washed with phosphate-buffered saline (PBS), and the culture medium was substituted with RPMI-1640 medium containing 1% bovine serum albumin. The cells were incubated for 1 h at 37 °C and 5% CO2 with unlabeled cudotadipep or cunotadipep (1.00 × 10^−4–1.00 × 10^−10 M) or 0.09–0.1 nM ^125I-(S)-2-(3-((S)-1-carboxy-5-(3-(4-iodophenyl)ureido)pentyl)ureido)pentanedioic acid (^125I-MIP-1095). The cells were washed twice in cold PBS and collected via centrifugation (2000 rpm, 5 min). Radioactivity was measured using 2480 WIZARD2 gamma counter (Perkin Elmer, Waltham, MA, USA). IC50 was calculated using Microsoft Excel and converted to Ki, using the Cheng–Prusoff equation [21].

[1] = ^18F-labeled PSMA compounds; cited from earlier work

| Ki (PSMA; 22Rv1 cells, converted from IC50 with the Cheng–Prusoff equation using Kd of MIP-1095) [nM] | IC50 (PSMA; cold forms, PSMA-expressing 22Rv1 cells, 1 h, 37 °C) [nM] | Compound | cellular uptake (PC3-PIP (PSMA+) cells) [%/1 × 10^6 cells] | effective dose [1] |
| --- | --- | --- | --- | --- |
| 6.75 ± 0.42 | 16.8 ± 1.05 | O=C([O-])CN1CCN(CC(=O)[O-])CCN(CC(=O)N[C@@H](CCCCNC(=O)CCCc2ccc(I)cc2)C(=O)NCCOCCOCC(=O)N(CCCC[C@H](NC(=O)N[C@@H](CCC(=O)O)C(=O)O)C(=O)O)CC(=O)O)CCN(CC(=O)[O-])CC1.[Cu+2] [Cu-cudotadipep] | 2.93 ± 0.06 | – |
| – | – | O=C(O)CC[C@H](NP(=O)(O)OCCC[C@H](NC(=O)CC[C@H](NC(=O)CCCCCNC(=O)c1ccc([18F])cc1)C(=O)O)C(=O)O)C(=O)O [^18F-CTT1057] | – | 2.28 × 10^−2 mSv/MBq |
| – | – | O=C(O)CC[C@H](NC(=O)N[C@@H](CCCCNC(=O)c1ccc([18F])nc1)C(=O)O)C(=O)O [^18F-DCFPyL] | – | 1.65 × 10^−2 mSv/MBq |
| – | – | O=C([O-])CN(CCN(CC(=O)[O-])Cc1cc(CCC(=O)NCCCCCC(=O)NCCCC[C@H](NC(=O)N[C@@H](CCC(=O)O)C(=O)O)C(=O)O)ccc1O)Cc1cc(CCC(=O)O)ccc1O.[18F-].[Al+3] [^18F-PSMA-11] | – | 1.28 × 10^−2 mSv/MBq |
